A short description of data set [1]: Stability trial at increased temperature and 75% relative humidity for 4 weeks (TGA, XRPD, IR). Type of data set: physicochemical. How it is done: During further stability analysis, samples of both the raw material and amorphous form (Form-III) of roxithromycin were kept at 25 degrees Celsius and 75% relative humidity (RH) (FIG. 7); 30 degrees Celsius and 75% relative humidity (FIG. 8); and 40 degrees Celsius and 75% relative humidity, for a period of 4 weeks. The samples were analysed by thermogravimetric analysis (TGA) and percentage weight loss/gain was determined.
It is evident from FIGS. 7 and 8 that after week 4 of a stability trial an amount of approximately 2.5% moisture is absorbed by the samples. The TGA results obtained for the samples stored at 40° C./75% RH (FIG. 9) did however not show the same extent of moisture absorption as that obtained with the samples of FIGS. 7 and 8. […] No moisture-induced recrystallisations of the amorphous form were observed. […] The amorphous form (Form-III) could therefore be regarded as stable against increased temperatures and humidity.
The IR data illustrates that the absorbed moisture was not structurally absorbed within the molecule, but only absorbed on the surface of the structure. This is confirmed by the peak between wavenumbers 3580 to 3464 cm^−1 that represents the —OH bands of roxithromycin raw material and the lack of peaks in the amorphous form (Form-III) of roxithromycin. […]

The nature of data set [2]: Solubility of roxithromycin forms in buffer media and water, excess solid, 37 degrees Celsius, 24 h, HPLC assay. The conditions noted are these: for solubility at 24 h: 37 °C, thermodynamic from solid, 37 degrees Celsius. Type of data set: physicochemical. As to the method:
In further analysis of the novel Form-III, each of five replicate test tubes were filled with an excess of the amorphous form (Form-III) of roxithromycin and 10 ml of solubility medium. The process was performed with each of the following mediums: acetate buffer (pH 4.5), phosphate buffer (pH 6.8), distilled water and 0.1 M HCl. The phosphate buffer comprises potassium dihydrogen phosphate, disodium hydrogen phosphate and water. The acetate buffer comprises ammonium acetate, glacial acetic acid and water. This method was also used for testing the prior art anhydrous roxithromycin.
The test tubes were fixed to a rotating axis (54 rpm) and submerged in a water bath at 37 degrees Celsius±2 degrees Celsius for twenty-four hours. The contents of the test tubes were filtered through a 0.45 μm filter and subsequently the respective filtrates were diluted.
The concentrations of the four filtrates of amorphous form (Form-III) of roxithromycin and roxithromycin raw material were respectively determined by HPLC (high performance liquid chromatography) assay. The HPLC assay was performed utilising a mobile phase of 30 g/L ammonium dihydrogen phosphate buffer at pH 5.3. The pH was adjusted with sodium hydroxide solution. The mobile phase comprised of buffer (600) and acetonitrile (400). A Luna C18 150 mm×4.6 mm column was used with a flow rate of 1.0 ml/min and a wavelength of 205 nm. Validation of this method provided a linear regression, R^2, of 0.9998.

Each structure is given as a SMILES string. ≈ marks a conversion by molar mass, not a printed value.

Consider two compounds from patent US8951977B2, “Amorphous roxithromycin composition” (North-West University, priority 2011, dated 2015).

For `CC[C@H]1OC(=O)[C@H](C)[C@@H](O[C@H]2C[C@@](C)(OC)[C@@H](O)[C@H](C)O2)[C@H](C)[C@@H](O[C@@H]2O[C@H](C)C[C@H](N(C)C)[C@H]2O)[C@](C)(O)C[C@@H](C)/C(=N\OCOCCOC)[C@H](C)[C@@H](O)[C@]1(C)O` [Form-III, roxithromycin], the “solid-state stability of the amorphous form” value in data set [1] (25, 30 and 40 degrees Celsius, 75% RH, 4 weeks) is “stable over a period of 4 weeks and did not recrystallise to a crystalline form”. The “recrystallisation (XRPD)” value in data set [1] (storage four weeks at 40 degrees Celsius and 75% relative humidity) is on record as “no recrystallisation”. Besides, the solubility at 24 h in data set [2] (aqueous buffer, acetate buffer (pH 4.5)) stood at 1150 ± 6.5 µg/mL (≈ 1370 µM); in data set [2] (aqueous buffer, phosphate buffer (pH 6.8)) it was 208 ± 3.7 µg/mL (≈ 249 µM); in data set [2] (distilled water), 8.6 ± 1.8 µg/mL (≈ 10.3 µM).

For `CC[C@H]1OC(=O)[C@H](C)[C@@H](O[C@H]2C[C@@](C)(OC)[C@@H](O)[C@H](C)O2)[C@H](C)[C@@H](O[C@@H]2O[C@H](C)C[C@H](N(C)C)[C@H]2O)[C@](C)(O)C[C@@H](C)/C(=N\OCOCCOC)[C@H](C)[C@@H](O)[C@]1(C)O` [roxithromycin, 3R, 4S, 5S, 6R, 7R, 9R, 11S, 12R, 13S, 14R-6-[(2S,3R,4S,6R)-4-dimethylamino-3-hydroxy-6-methyloxan-2-yl]oxy-14-ethyl-7,12,13-trihydroxy-4-[(2R,4R,5S,6S)-5-hydroxy-4-methoxy-4,6-dimethyloxan-2-yl]oxy-10-(2-methoxyethoxymethoxyimino)-3,5,7,9,11,13-hexamethyl-1-oxacyclotetradecan-2-one], in data set [2] (0.1 M HCl solubility medium, results omitted for both forms), the “stability in 0.1 M HCl” value is listed as “rapid degradation”.
